Results: BindingDB's records for doi:10.1016/j.bmcl.2008.01.024 (Schering-Plough Research Institute, 2008)

What was measured:
[1] = Inhibition of CXCR2-mediated chemotaxis in Ba/F3 cells expressing human CXCR2
[2] = Inhibition of CXCR1-mediated chemotaxis in Ba/F3 cells expressing human CXCR1

## CC[C@@H](Nc1c(Nc2cccc(C(=O)N(C)C)c2O)c(=O)c1=O)c1cc(C)on1 [(R)-2-hydroxy-N,N-dimethyl-3-(2-(1-(5-methylisoxazol-3-yl)propylamino)-3,4-dioxocyclobut-1-enylamino)benzamide]
[1]
  IC50: 12.2 nM

## CC[C@@H](Nc1c(Nc2cccc(C(=O)N(C)C)c2O)c(=O)c1=O)c1cc(Br)co1 [(R)-3-(2-(1-(4-bromofuran-2-yl)propylamino)-3,4-dioxocyclobut-1-enylamino)-2-hydroxy-N,N-dimethylbenzamide]
[2]
  IC50: 917 nM
[1]
  IC50: 2 nM

## CC[C@@H](Nc1c(Nc2cccc(C(=O)N(C)C)c2O)c(=O)c1=O)c1ccccn1 [(R)-3-(3,4-dioxo-2-(1-(pyridin-2-yl)propylamino)cyclobut-1-enylamino)-2-hydroxy-N,N-dimethylbenzamide]
[1]
  IC50: 4.5 nM
